Experimental data: ChEMBL document CHEMBL5653615 (J Biol Chem, 2013)

Columns and labels:
[1] = target: Protein kinase C alpha type (Homo sapiens) (UniProt P17252); assay: Inhibition of human PKCa at 500 nM by HotSpot assay relative to control
[2] = target: PAS domain-containing serine/threonine-protein kinase (Homo sapiens) (UniProt Q96RG2); assay: Inhibition of human PASK at 500 nM by HotSpot assay relative to control
[3] = target: Serine/threonine-protein kinase 10 (Homo sapiens) (UniProt O94804); assay: Inhibition of human LOK at 500 nM by HotSpot assay relative to control
[4] = target: Fibroblast growth factor receptor 4 (Homo sapiens) (UniProt P22455); assay: Inhibition of human FGFR4 at 500 nM by HotSpot assay relative to control
[5] = target: T1, Ephrin type-B receptor 3 (Homo sapiens) (UniProt P54753); assay: Inhibition of human EPHB3 at 500 nM by HotSpot assay relative to control
T1 sequence (whole entry): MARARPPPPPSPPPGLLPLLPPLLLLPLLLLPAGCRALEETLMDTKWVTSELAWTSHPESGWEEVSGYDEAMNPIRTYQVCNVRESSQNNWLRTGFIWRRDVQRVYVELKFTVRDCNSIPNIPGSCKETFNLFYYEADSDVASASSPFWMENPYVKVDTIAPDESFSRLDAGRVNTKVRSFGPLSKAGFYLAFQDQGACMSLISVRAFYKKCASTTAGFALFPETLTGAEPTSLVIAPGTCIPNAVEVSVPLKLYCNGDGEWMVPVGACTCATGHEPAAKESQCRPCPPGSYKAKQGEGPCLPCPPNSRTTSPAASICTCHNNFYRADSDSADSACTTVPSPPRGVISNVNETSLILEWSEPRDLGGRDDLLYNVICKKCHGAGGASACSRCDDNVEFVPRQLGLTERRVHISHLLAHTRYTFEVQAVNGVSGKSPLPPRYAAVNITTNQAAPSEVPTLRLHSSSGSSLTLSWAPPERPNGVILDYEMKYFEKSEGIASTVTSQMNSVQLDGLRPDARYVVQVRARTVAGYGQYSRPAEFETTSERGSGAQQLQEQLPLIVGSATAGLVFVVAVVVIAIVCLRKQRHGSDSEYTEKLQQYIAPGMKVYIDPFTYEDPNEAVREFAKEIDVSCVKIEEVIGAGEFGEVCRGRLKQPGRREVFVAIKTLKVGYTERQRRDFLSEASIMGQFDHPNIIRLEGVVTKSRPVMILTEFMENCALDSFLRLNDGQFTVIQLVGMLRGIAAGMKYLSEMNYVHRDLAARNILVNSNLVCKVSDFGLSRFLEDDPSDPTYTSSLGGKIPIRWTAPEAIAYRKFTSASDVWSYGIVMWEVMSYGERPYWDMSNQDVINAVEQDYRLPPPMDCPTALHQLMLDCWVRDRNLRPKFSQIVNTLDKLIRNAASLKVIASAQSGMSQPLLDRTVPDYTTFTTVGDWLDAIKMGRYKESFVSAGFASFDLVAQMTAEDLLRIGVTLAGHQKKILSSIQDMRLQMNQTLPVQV

[6] = target: Casein kinase I isoform epsilon (Homo sapiens) (UniProt P49674); assay: Inhibition of human CK1epsilon at 500 nM by HotSpot assay relative to control
Sequence of Casein kinase I isoform epsilon (Homo sapiens) (P49674 whole entry, looked up, canonical isoform): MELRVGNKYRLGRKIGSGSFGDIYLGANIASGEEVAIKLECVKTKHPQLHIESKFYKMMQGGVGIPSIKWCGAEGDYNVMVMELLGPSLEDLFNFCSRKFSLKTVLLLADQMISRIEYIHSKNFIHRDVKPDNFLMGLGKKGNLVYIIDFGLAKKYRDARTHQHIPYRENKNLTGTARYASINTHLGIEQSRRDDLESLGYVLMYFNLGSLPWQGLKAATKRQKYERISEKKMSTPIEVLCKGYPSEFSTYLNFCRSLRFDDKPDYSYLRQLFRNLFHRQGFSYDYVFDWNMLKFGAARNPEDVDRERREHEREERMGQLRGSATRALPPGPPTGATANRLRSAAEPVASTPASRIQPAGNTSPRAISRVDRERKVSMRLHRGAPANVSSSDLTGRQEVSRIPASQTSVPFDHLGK

[7] = species on record: Homo sapiens; assay: Inhibition of human CDK2/cyclin A at 500 nM by HotSpot assay relative to control
[8] = target: Serine/threonine-protein kinase PAK 3 (Homo sapiens) (UniProt O75914); assay: Inhibition of human PAK3 at 500 nM by HotSpot assay relative to control
Sequence of Serine/threonine-protein kinase PAK 3 (Homo sapiens) (O75914 whole entry, looked up): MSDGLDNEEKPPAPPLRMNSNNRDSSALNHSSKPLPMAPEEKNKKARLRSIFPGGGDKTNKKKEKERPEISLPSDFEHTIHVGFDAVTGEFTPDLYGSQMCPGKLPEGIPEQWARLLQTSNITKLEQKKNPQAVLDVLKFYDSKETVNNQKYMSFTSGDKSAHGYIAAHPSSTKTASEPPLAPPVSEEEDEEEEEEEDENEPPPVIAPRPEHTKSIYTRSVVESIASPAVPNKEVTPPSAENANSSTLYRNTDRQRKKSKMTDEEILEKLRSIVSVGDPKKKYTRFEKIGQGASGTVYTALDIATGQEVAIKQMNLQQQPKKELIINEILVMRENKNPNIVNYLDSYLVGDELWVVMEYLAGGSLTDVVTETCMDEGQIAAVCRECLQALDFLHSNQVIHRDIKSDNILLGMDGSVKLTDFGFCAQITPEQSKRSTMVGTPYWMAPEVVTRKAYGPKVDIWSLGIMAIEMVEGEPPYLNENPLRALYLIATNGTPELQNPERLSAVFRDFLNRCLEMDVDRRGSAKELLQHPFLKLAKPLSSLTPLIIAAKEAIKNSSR

[9] = target: CDK6/cyclin D3 (Homo sapiens) (UniProt P30281+Q00534); assay: Inhibition of human CDK6/cyclin D3 at 500 nM by HotSpot assay relative to control; format: protein-complex assay
[10] = target: T2, Ephrin type-A receptor 3 (Homo sapiens) (UniProt P29320); assay: Inhibition of human EPHA3 at 500 nM by HotSpot assay relative to control
T2 sequence (whole entry): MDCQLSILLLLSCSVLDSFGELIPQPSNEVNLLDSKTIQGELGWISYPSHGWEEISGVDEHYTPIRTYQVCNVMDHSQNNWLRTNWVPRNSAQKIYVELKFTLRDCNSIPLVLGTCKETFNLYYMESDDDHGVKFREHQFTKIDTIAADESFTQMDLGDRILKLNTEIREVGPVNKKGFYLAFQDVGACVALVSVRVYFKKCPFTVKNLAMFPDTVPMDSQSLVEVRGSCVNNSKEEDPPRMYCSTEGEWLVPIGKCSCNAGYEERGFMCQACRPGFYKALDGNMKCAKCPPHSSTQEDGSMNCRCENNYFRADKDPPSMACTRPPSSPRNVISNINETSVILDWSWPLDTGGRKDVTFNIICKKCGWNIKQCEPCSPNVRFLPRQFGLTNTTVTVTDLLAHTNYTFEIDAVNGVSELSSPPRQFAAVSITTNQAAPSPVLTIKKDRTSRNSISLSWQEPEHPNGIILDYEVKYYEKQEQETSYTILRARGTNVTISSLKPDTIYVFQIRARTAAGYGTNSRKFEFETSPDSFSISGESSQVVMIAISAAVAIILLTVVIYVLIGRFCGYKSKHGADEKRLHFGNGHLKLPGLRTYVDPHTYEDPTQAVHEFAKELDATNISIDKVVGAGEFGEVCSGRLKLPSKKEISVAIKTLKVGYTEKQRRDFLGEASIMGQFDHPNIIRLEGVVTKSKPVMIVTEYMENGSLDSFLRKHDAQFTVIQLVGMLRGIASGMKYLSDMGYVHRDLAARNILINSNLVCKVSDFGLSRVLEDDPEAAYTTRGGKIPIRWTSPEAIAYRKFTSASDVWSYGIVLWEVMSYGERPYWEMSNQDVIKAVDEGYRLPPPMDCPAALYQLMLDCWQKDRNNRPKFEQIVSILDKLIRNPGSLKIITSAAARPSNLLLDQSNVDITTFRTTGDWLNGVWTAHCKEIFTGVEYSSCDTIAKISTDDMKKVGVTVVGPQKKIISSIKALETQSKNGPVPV

[11] = target: Serine/threonine-protein kinase SIK2 (Homo sapiens) (UniProt Q9H0K1); assay: Inhibition of human SIK2 at 500 nM by HotSpot assay relative to control
[12] = target: Serine/threonine-protein kinase 33 (Homo sapiens) (UniProt Q9BYT3); assay: Inhibition of human STK33 at 500 nM by HotSpot assay relative to control
Sequence of Serine/threonine-protein kinase 33 (Homo sapiens) (Q9BYT3 whole entry, looked up): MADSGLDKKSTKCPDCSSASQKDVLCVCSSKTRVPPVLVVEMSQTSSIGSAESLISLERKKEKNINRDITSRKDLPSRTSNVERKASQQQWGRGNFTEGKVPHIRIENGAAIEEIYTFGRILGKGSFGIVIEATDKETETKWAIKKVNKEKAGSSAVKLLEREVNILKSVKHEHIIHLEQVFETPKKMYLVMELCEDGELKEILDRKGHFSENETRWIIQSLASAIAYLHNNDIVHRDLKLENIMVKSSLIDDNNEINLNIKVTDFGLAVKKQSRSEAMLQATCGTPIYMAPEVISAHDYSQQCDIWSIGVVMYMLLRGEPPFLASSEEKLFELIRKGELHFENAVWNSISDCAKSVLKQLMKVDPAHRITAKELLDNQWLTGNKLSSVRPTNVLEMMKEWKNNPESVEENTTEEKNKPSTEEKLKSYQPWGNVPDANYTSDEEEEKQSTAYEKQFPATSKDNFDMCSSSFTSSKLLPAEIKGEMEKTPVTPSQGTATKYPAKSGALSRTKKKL

[13] = target: Death-associated protein kinase 1 (Homo sapiens) (UniProt P53355); assay: Inhibition of human DAPK1 at 500 nM by HotSpot assay relative to control
[14] = target: Mitogen-activated protein kinase kinase kinase 9 (Homo sapiens) (UniProt P80192); assay: Inhibition of human MAP3K9 at 500 nM by HotSpot assay relative to control
Sequence of Mitogen-activated protein kinase kinase kinase 9 (Homo sapiens) (P80192 whole entry, looked up): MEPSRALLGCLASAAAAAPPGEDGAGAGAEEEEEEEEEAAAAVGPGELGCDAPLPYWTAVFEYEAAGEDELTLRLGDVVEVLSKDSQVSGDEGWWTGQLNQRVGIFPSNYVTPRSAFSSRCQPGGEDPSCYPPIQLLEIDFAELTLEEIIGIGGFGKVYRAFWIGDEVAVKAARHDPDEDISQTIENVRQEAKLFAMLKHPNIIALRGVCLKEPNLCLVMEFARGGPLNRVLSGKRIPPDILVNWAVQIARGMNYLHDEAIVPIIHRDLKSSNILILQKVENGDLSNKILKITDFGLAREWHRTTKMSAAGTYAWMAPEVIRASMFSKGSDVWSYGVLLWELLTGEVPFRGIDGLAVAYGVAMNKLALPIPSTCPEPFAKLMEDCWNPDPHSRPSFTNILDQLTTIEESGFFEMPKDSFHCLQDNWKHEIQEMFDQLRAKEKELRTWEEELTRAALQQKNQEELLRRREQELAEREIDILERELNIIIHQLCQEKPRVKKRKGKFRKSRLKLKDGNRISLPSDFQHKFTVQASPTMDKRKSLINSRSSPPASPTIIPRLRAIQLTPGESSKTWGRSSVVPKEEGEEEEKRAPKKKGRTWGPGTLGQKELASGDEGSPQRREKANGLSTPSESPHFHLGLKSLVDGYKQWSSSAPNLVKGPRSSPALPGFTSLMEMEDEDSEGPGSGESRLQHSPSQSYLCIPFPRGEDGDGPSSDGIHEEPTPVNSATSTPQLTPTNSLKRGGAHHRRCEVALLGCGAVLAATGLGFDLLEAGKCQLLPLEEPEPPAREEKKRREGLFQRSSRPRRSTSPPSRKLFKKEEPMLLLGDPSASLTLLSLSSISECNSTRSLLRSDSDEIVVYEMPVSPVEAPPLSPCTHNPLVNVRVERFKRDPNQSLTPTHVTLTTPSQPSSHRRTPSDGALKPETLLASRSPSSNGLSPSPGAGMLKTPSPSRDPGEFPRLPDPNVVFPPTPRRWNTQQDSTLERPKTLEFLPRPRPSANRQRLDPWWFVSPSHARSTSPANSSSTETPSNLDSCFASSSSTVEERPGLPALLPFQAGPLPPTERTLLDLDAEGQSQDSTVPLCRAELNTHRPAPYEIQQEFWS

[15] = target: Serine/threonine-protein kinase WNK3 (Homo sapiens) (UniProt Q9BYP7); assay: Inhibition of human WNK3 at 500 nM by HotSpot assay relative to control
Sequence of Serine/threonine-protein kinase WNK3 (Homo sapiens) (Q9BYP7 whole entry): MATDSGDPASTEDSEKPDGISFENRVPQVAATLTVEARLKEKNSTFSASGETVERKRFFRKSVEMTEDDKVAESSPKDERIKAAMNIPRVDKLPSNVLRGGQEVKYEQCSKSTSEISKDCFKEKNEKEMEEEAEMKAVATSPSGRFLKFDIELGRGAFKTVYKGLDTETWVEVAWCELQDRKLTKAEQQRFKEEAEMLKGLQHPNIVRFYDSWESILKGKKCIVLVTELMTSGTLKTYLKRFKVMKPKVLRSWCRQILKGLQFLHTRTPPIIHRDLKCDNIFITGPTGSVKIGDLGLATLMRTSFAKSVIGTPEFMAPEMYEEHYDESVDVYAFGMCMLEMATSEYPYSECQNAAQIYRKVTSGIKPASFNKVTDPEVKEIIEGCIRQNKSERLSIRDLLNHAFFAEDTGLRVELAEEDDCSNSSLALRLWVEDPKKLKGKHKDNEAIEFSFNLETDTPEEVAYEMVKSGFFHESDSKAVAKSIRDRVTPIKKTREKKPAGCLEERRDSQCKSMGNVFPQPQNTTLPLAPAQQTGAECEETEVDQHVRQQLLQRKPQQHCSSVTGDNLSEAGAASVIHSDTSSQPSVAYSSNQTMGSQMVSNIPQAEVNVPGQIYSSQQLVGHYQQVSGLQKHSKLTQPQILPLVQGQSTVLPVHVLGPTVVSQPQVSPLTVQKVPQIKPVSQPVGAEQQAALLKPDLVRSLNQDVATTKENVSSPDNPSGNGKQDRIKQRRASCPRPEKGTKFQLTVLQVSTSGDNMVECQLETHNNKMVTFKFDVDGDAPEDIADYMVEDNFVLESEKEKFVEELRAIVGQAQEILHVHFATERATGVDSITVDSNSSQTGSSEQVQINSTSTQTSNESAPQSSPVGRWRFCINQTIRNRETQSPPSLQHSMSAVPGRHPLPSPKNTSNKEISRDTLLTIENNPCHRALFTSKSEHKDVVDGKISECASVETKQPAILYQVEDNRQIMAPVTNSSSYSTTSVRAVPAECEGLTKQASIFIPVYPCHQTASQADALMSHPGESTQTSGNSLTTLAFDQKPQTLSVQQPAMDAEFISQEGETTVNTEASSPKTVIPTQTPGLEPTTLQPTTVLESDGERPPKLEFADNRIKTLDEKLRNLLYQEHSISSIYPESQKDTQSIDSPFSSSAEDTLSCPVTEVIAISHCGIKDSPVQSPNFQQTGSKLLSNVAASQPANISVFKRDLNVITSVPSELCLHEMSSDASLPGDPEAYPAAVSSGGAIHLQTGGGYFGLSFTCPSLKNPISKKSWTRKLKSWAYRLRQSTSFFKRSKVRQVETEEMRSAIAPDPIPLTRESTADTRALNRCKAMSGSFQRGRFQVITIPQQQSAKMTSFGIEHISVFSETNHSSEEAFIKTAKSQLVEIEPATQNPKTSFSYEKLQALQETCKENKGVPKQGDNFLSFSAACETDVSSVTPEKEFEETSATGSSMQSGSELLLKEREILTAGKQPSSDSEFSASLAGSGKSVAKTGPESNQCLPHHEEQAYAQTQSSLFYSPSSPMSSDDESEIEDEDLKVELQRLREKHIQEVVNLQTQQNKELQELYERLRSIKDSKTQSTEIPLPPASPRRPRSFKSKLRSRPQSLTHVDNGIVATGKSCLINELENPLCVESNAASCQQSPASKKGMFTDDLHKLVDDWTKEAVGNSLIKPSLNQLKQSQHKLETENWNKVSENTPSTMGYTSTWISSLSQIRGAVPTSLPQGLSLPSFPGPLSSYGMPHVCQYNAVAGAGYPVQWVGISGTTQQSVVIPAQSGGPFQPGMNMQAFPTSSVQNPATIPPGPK

SMILES | inhibition [1] | inhibition [2] | inhibition [3] | inhibition [4] | inhibition [5] | inhibition [6] | inhibition [7] | inhibition [8] | inhibition [9] | inhibition [10] | inhibition [11] | inhibition [12] | inhibition [13] | inhibition [14] | inhibition [15]
Nc1n[nH]c2nnc(-c3c(-c4ccccc4)nn4ccccc34)cc12 | 12.8% | 0.21% | 29.1% | -3.98% | 3.21% | 19.1% | 7.12% | -0.04% | 9.56% | 2.18% | 6.36% | -0.39% | 4.15% | 0.07% | -1.28%
Oc1n[nH]c2nnc(-c3c(-c4ccccc4)nn4ccccc34)cc12 | 14.1% | -0.26% | 5.81% | -3.29% | -1.08% | 0.54% | -0.72% | 0.99% | 1.59% | 5.45% | 14.5% | -0.22% | 6.45% | -2.83% | 0.29%
